Laboratory results reported in patent US20240067672A1, “FLAVONE DERIVATIVE FOR TREATING TUMORS AND USE THEREOF” (SICHUAN FUSHENGYUAN TECHNOLOGY CO., LTD, priority 2019, published 2024).
In brackets after ≈: the same amount, converted by molar mass. Like-named read-outs stand apart in the source and are kept apart here.

Key:
HepG2 subcutaneous tumor = experiment: Anti-tumor activity in vivo, HepG2 nude mouse model; design: species or system Balb/c nude mice; settings: HepG2 nude mice, intraperitoneally every day for 21 days; for tumor inhibition rate: equal mole of Icaritin (Icaritin 10 mg/kg)
Source text: According to the investigation results of solubility and cell activity, compounds 51 and 57 with high solubility and strong cell activity were selected to evaluate the anti-hepatoma activity in vivo on HepG2 nude mouse models.
Human hepatoma cells HepG2 were cultivated to logarithmic growth phase in DMEM culture medium containing 10% fetal calf serum and 1% antibiotics (penicillin and streptomycin), and digested by adding 0.25% pancreatin. After the resulting cells were cultivated in DMEM and the pancreatin was removed, they were centrifuged at 1000 rpm for 3 min. Then the cells were collected and washed with free medium until no bubbles produced as observed by naked eyes, and then ° entrifuged. After discarding the supernatant, the cells were resuspended with free medium adjust the cell density to 1×10^6/100 μL.
70 Balb/c nude mice raised in an SPF-grade animal house were taken. 100 μL, HepG2 cells were inoculated subcutaneously at the right lateral rib of each nude mouse. The growing status of nude mice was observed and the subcutaneous tumor volume was measured every day. One week after inoculation, obvious nodules were formed subcutaneously in nude mice. Administration was initiated when the tumor grew to 100 mm^3.
Tumor volume increased to 80-120 mm^3 at two weeks after inoculation, marked as Day 0. The nude mice were randomly divided into 6 groups with 6 mice in each group: a normal saline group (control), an Icaritin group (Icarian), a yyhs-i-b high dose group, a yyhs-1-b low dose group, a yyhs-2-a high dose group, and a yyhs-2-a low dose group. Administration was performed intraperitoneally every day for 21 days totally.
The administration doses were: Icarian at 10 mg/kg, compound 51 high dose at 25.30 mg/kg, low dose at 12.65 mg/kg, compound 57 high dose at 22.91 mg/kg, and low dose at 11.45 mg/kg.
From day 0, the body weights and tumor volumes of nude mice were measured once every three days, in which the maximum diameter (a) of tumor was measured first, and then the longest radial line length (b) perpendicular to the maximum diameter line was measured, in mm, thereby calculating the tumor volume according to the following formula: […]
At the end of the treatment cycle, blood was taken from orbital vein of the nude mice for later blood routine test. Then the nude mice were sacrificed using cervical vertebra dislocation. After taking photos, the tumors were stripped immediately and photographed for record. From day 0, the body weights of each group of nude mice were weighed and recorded every 3 days, and at the same time, the tumor volumes of these nude mice were recorded. The average body weight and tumor volume were calculated for each group, and the curve of body weight versus tumor volume of the nude mice was plotted according to the statistical data.
The hearts, livers, spleens, lungs, and kidneys were subsequently picked from the nude mice, soaked with 4% paraformaldehyde and then preserved at a low temperature of 4° C. for later investigation of the mechanism of the anti-tumor in vivo. The tumor volume growth curve was plotted with the time as the horizontal coordinate, and with the tumor volume as the vertical coordinate. The tumor volume growth curves and the appearance of tumors are seen in FIG. 1. The body weight changing curves of mice are plotted in FIG. 2, with the time as the horizontal coordinate, and the body weight of mice as the vertical coordinate.

HepG2 hepatoma cells = experiment: Anti-tumor activity in vitro, MTT method, HepG2; format: cell-based, human; settings: for IC50 compared with Icaritin, HepG2 72 h: HepG2, 72 h after administration; for IC50 compared with Icaritin, 48 and 72 h: HepG2 and SMMC7721, 48 and 72 h; for IC50: MTT
Protocol: (§1) The effects of Icaritin and its derivatives on the activities of HepG2 and SMMC7721 hepatoma cells were investigated by a MTT method. […] After reaction for 48, 7 2 h, each well was added with 20 μL 5 mg/mL, of MTT solution, and incubated in a cell incubator for 3-4 h. Then the liquid in the well plates was sucked to discard. Each well was added with 150 μL of dimethyl sulfoxide (DMSO), and shaken on an enzyme-labeled instrument for 30 s at ambient temperature so that the Formazan crystals were dissolved sufficiently. The absorbance value A of each well at 570 nm was detected by the enzyme-labeled instrument, and the experiment was repeated for 3 times.

[1] = Determination of solubility (HPLC); format: physicochemical; settings: for solubility: thermodynamic from solid
Protocol: About 1.325 mg of Icaritin and the synthesized derivative were weighed and dissolved in 1.5 mL methanol respectively, then diluted with methanol into solutions of 10, 20, 50, 100, 150, 200, 500 μg/mL, and filtered over an organic-system filter head of 0.45 μm into sample bottles, obtaining the samples for test. Four parts of Icaritin and the synthesized derivative were weighed respectively, 1.00 mg for each part, and placed into 1.5 mL EP tubes, and 1 mL of water, normal saline, PBS, and 0.1% Tween 80 were respectively added thereto. The obtained solutions were ultrasonicated for 1 h, placed in a water bath at 37° C. overnight, and centrifuged at 10000 r/min for 3 min to collect supernatants. The supernatants were taken into sample bottles and detected by HPLC. The experiments were conducted in parallel for three times. The detection of HPLC is conducted under conditions of a chromatographic column of waters Symmetry C18, a mobile phase of a solution of methanol and water with a ratio of 80:20, a flow rate of 1.0 mL/min, a column temperature of 30° C., a detection wavelength of 210 nm, a run time of 30 min, and a sample load of 20 μL.

SMMC7721 hepatoma cells = experiment: Anti-tumor activity in vitro, MTT method, SMMC7721; format: cell-based, human; settings: for IC50: MTT; for IC50 compared with Icaritin, SMMC7721 72 h: SMMC7721, 72 h after administration
Protocol: as §1

[2] = Homo sapiens, HepG2, 48 h, read-out: IC50 HepG2 48 h
[3] = Homo sapiens, HepG2, 72 h, read-out: IC50 HepG2 72 h
[4] = 37 °C, aqueous with cosolvent or surfactant or cyclodextrin
[5] = Homo sapiens, SMMC-7721, SMMC7721, 48 h, read-out: IC50 SMMC7721 48 h
[6] = Homo sapiens, SMMC-7721, SMMC7721, 72 h, read-out: IC50 SMMC7721 72 h

| Structure (SMILES) | IC50 compared with Icaritin, HepG2 72 h (HepG2 hepatoma cells) | IC50 (HepG2 hepatoma cells; [2]) | IC50 (HepG2 hepatoma cells; [3]) | solubility compared with that of the bulk drug (Icaritin) [1] | solubility ([1]; 37 °C, aqueous buffer) | solubility [1, 4] | solubility ([1]; 37 °C, saline or isotonic) | solubility ([1]; 37 °C, water) | IC50 (SMMC7721 hepatoma cells; [5]) | IC50 (SMMC7721 hepatoma cells; [6]) | IC50 compared with Icaritin, SMMC7721 72 h (SMMC7721 hepatoma cells) | Solubility, 0.1% Tween 80 [1] | Solubility, Normal Saline [1] | Solubility, PBS [1] | Solubility, Water [1] | further results |
| --- | --- | --- | --- | --- | --- | --- | --- | --- | --- | --- | --- | --- | --- | --- | --- | --- |
| COc1ccc(-c2oc3c(CC=C(C)C)c(O)cc(O)c3c(=O)c2OC(=O)CCC(=O)OCCOCCOCCOCCOCc2cn(CCO[C@H]3O[C@@H](CO)[C@H](O)[C@@H](O)[C@@H]3O)nn2)cc1 [Compound 51] | less than that of Icaritin | 14.9 ± 0.22 µM | 7.09 ± 0.38 µM | improved effectively | 48.5 ± 0.948 µg/mL (≈ 52 µM) | 51.5 ± 1.23 µg/mL (≈ 55.3 µM) | 47.9 ± 0.993 µg/mL (≈ 51.4 µM) | 50.3 ± 1.31 µg/mL (≈ 54 µM) | 9.3 ± 0.35 µM | 5.99 ± 0.49 µM | less than that of Icaritin | – | – | – | – | anti-tumor activity in vivo (tumor volume, FIG. 1) (HepG2 subcutaneous tumor; high and low dose): excellent anti-tumor activities in vivo and are dose-dependent; tumor inhibition rate (HepG2 subcutaneous tumor): 95%; IC50 compared with Icaritin, 48 and 72 h (HepG2 hepatoma cells): less than those of Icaritin |
| COc1ccc(-c2oc3c(CC=C(C)C)c(O)cc(O)c3c(=O)c2O)cc1 [Icaritin, reference compound] | – | 20.6 ± 2.82 µM | 16.1 ± 1.27 µM | – | – | – | – | – | 23.2 ± 1.02 µM | 15 ± 0.66 µM | – | – | – | – | – | tumor inhibition rate (HepG2 subcutaneous tumor): 53%; solubility ([1]; aqueous buffer, PBS, 37° C. overnight, n = 3, read-out: Solubility, PBS): 8.1 ± 0.897 µg/mL (≈ 22 µM); solubility ([1]; aqueous with cosolvent or surfactant or cyclodextrin, 0.1% Tween 80, 37° C. overnight, n = 3, read-out: Solubility, 0.1% Tween 80): 8.11 ± 0.672 µg/mL (≈ 22 µM); solubility ([1]; saline or isotonic, normal saline, 37° C. overnight, n = 3, read-out: Solubility, Normal Saline): 8.1 ± 1.01 µg/mL (≈ 22 µM); solubility ([1]; water, 37° C. overnight, n = 3, read-out: Solubility, Water): 8.57 ± 0.832 µg/mL (≈ 23.3 µM) |
| COc1ccc(-c2oc3c(CC=C(C)C)c(O)cc(O)c3c(=O)c2OC(=O)CCC(=O)OCCCOCc2cn(CCO[C@H]3O[C@@H](CO)[C@H](O)[C@@H](O)[C@@H]3O)nn2)cc1 [Compound 96] | less than that of Icaritin | 12 ± 0.82 µM | 5.56 ± 0.8 µM | improved effectively | 15.5 ± 1.31 µg/mL (≈ 19 µM) | 16.8 ± 0.422 µg/mL (≈ 20.7 µM) | 16.8 ± 0.313 µg/mL (≈ 20.7 µM) | 16.9 ± 0.462 µg/mL (≈ 20.7 µM) | 29.7 ± 1.23 µM | 6.65 ± 1.29 µM | less than that of Icaritin | – | – | – | – | IC50 compared with Icaritin, 48 and 72 h (HepG2 hepatoma cells): less than those of Icaritin |
| COc1ccc(-c2oc3c(CC=C(C)C)c(O)cc(O)c3c(=O)c2OC(=O)CCC(=O)OCCOCc2cn(CCOCCOC3OC(CO)C(O)C(O)C3O)nn2)cc1 (centres unmarked) [Compound 73] | – | – | – | – | – | – | – | – | – | – | – | Insoluble | Insoluble | Insoluble | Insoluble | IC50 (HepG2 hepatoma cells; HepG2, 48 h, read-out: IC50 HepG2 48 h): 43.2 ± 1.21 µM; IC50 (HepG2 hepatoma cells; HepG2, 72 h, read-out: IC50 HepG2 72 h): 36.8 ± 0.65 µM; IC50 (SMMC7721 hepatoma cells; SMMC7721, 48 h, read-out: IC50 SMMC7721 48 h): > 100 µM; IC50 (SMMC7721 hepatoma cells; SMMC7721, 72 h, read-out: IC50 SMMC7721 72 h): 37.2 ± 1.36 µM |
| COc1ccc(-c2oc3c(CC=C(C)C)c(O)cc(O)c3c(=O)c2OC(=O)CCC(=O)OCc2cn([C@H]3O[C@@H](CO)[C@H](O)[C@@H](O)[C@@H]3O)nn2)cc1 [Compound 35] | – | > 100 µM | > 100 µM | improved effectively | 12 ± 1.02 µg/mL (≈ 16.8 µM) | 12.1 ± 1.03 µg/mL (≈ 17 µM) | 12.3 ± 1.31 µg/mL (≈ 17.3 µM) | 12 ± 1.23 µg/mL (≈ 16.8 µM) | > 100 µM | > 100 µM | – | – | – | – | – | – |
| COc1ccc(-c2oc3c(CC=C(C)C)c(O)cc(O)c3c(=O)c2OC(=O)CCC(=O)OCCOCCOCCOCc2cn(CCO[C@H]3O[C@@H](CO)[C@H](O)[C@@H](O)[C@@H]3O)nn2)cc1 [Compound 58] | – | 19.7 ± 0.52 µM | 20 ± 2.12 µM | – | 3.82 ± 0.874 µg/mL (≈ 4.31 µM) | 3.89 ± 0.941 µg/mL (≈ 4.38 µM) | 3.68 ± 0.947 µg/mL (≈ 4.15 µM) | 3.64 ± 0.374 µg/mL (≈ 4.1 µM) | > 100 µM | 2.51 ± 0.72 µM | less than that of Icaritin | – | – | – | – | – |
| COc1ccc(-c2oc3c(CC=C(C)C)c(O)cc(O)c3c(=O)c2OC(=O)CCC(=O)OCCOCCOCc2cn([C@H]3O[C@@H](CO)[C@H](O)[C@@H](O)[C@@H]3O)nn2)cc1 [Compound 64] | – | > 100 µM | 32.6 ± 3.12 µM | – | 0.991 ± 0.314 µg/mL (≈ 1.24 µM) | 1.08 ± 0.756 µg/mL (≈ 1.35 µM) | – | 2.24 ± 0.941 µg/mL (≈ 2.8 µM) | > 100 µM | > 100 µM | – | – | Insoluble | – | – | – |
| COc1ccc(-c2oc3c(CC=C(C)C)c(O)cc(O)c3c(=O)c2OC(=O)CCC(=O)NCCCCCOCc2cn(C3O[C@H](CO)[C@@H](O)[C@H](O)[C@H]3O)nn2)cc1 (some centres unmarked) [Compound 81] | less than that of Icaritin | > 100 µM | 12 ± 1.23 µM | – | – | – | – | – | > 100 µM | 22.2 ± 1.45 µM | – | Insoluble | Insoluble | Insoluble | Insoluble | – |
| COc1ccc(-c2oc3c(CC=C(C)C)c(O)cc(O)c3c(=O)c2OC(=O)CCC(=O)OCCOCCOCc2cn(CCO[C@@H]3O[C@H](CO)[C@@H](O)[C@H](O)[C@H]3O)nn2)cc1 [Compound 65] | – | > 100 µM | 37.74 ± 0.2 µM | – | – | – | – | – | > 100 µM | > 100 µM | – | Insoluble | Insoluble | Insoluble | Insoluble | – |
